Experimental data from patent US10710996B2, “Pyrido-azaheterecydic compound and preparation method and use thereof” (SHANGHAI INSTITUTE OF MATERIA MEDICA, CHINESE ACADEMY OF …, priority 2015, dated 2020).

Key:
[1] = biological target: T1, c-Met kinase (Homo sapiens, UniProt P08581); assay: Inhibitory effect on c-Met kinase activity at molecular level (ELISA); assay type: biochemical;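 further: recombinant c-Met kinase domain with 5 µM ATP, 1 h at 37 °C, substrate phosphorylation detected by anti-phosphotyrosine PY99 ELISA at 490 nm versus DMSO negative control, ATP-free wells as blank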
T1 construct: c-Met kinase domain recombinant protein diluted with 49 μL of the reaction buffer was added

[2] = test system: EBC-1 cells; assay: Inhibition of c-Met-mediated EBC-1 cell proliferation (SRB staining); assay type: cell-based; conditions: Homo sapiens, 72 hours treatment
Description: The inhibitory effect of the compounds on the growth of non-small cell cancer EBC-1 cell (a cell line in which Met is continually activated due to the amplification of MET gene, and is a Met-dependent tumor cell line) was measured by sulforhodamine B (SRB) staining assay. A certain amount of EBC-1 cells in their logarithmic growth phase were seeded in 96-well plates at 90 μL per well and cultured overnight, then 10 μL of different concentrations of compounds or solvent control were added thereto, three wells for each concentration. After treated by the compound for 72 hours, the adherent cells were removed of culture medium and fixed with 10% (w/v) trichloroacetic acid (100 μL/well) at 4° C. for 1 hr followed by rinsing with distilled water five times. After drying at room temperature, 100 μL of SRB solution (dissolved in 1% glacial acetic acid at 4 mg/mL) was added to each well to incubate and stain the cells for 15 min at room temperature, then unbound SRB was washed off with 1% glacial acetic acid for five times. After drying at room temperature, 100 μL of 10 mM Tris solution was added to each well. The optical density (OD value) at 515 nm was read on a VERSMax microplate reader. […] The experiment was repeated twice. The IC50 data was calculated as a range based on the test results of concentrations set in the initial screening test.

T1 sequence (P08581 1078-1345 limits assumed): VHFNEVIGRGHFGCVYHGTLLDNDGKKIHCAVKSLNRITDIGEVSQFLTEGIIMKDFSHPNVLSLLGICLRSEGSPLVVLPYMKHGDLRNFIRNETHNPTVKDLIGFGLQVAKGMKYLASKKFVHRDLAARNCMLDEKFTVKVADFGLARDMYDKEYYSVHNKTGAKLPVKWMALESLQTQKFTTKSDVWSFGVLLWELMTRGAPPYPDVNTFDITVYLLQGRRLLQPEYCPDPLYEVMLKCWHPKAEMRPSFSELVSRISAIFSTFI

IC50 [1]	Structure (SMILES)	IC50 [2]
1000 to 10000 nM	O=C(Nc1ccc(F)cc1)C1(C(=O)Nc2ccc(Oc3ccnc4cc(Cl)ncc34)c(F)c2)CC1 [Compound 1S, N-(4-((7-chloro-1,6-naphthyridin-4-yl)oxy)-3-fluorophenyl)-N-(4-fluorophenyl) cyclopropyl-1,1-dicarboxamide]	100 to 1000 nM
1 to 10 nM	CN(C)c1cc2nccc(Oc3ccc(NC(=O)C4(C(=O)Nc5ccc(F)cc5)CC4)cc3F)c2cn1 [Compound 2S, N-(4-((7-(dimethylamino)-1,6-naphthyridin-4-yl)oxy)-3-fluorophenyl)-N-(4-fluorophenyl)cyclopropyl-1,1-dicarboxamide]	10 to 100 nM
1 to 10 nM	COc1cc2nccc(Oc3ccc(NC(=O)C4(C(=O)Nc5ccc(F)cc5)CC4)cc3F)c2cn1 [Compound 3S, N-(4-((7-methoxy-1,6-naphthyridin-4-yl)oxy)-3-fluorophenyl)-N-(4-fluorophenyl)cyclopropyl-1,1-dicarboxamide]	100 to 1000 nM
1 to 10 nM	CN1CCC(COc2cc3nccc(Oc4ccc(NC(=O)C5(C(=O)Nc6ccc(F)cc6)CC5)cc4F)c3cn2)CC1 [Compound 9S, N-(3-fluoro-4-((7-((1-methylpiperidin-4-yl)methoxy)-1,6-naphthyridin-4-yl)oxy)phenyl)-N-(4-fluorophenyl) cyclopropyl-1,1-dicarboxamide]	10 to 100 nM
1 to 10 nM	CN1CCN(CCOc2cc3nccc(Oc4ccc(NC(=O)C5(C(=O)Nc6ccc(F)cc6)CC5)cc4F)c3cn2)CC1 [Compound 11S, N-(3-fluoro-4-((7-(2-(4-methylpiperazin-1-yl)ethoxy)-1,6-naphthyridin-4-yl)oxy)phenyl)-N-(4-fluorophenyl) cyclopropyl-1,1-dicarboxamide]	100 to 1000 nM
1 to 10 nM	O=C(Nc1ccc(F)cc1)C1(C(=O)Nc2ccc(Oc3ccnc4cc(OCCN5CCOCC5)ncc34)cc2)CC1 [Compound 12S, N-(4-fluorophenyl)-N-(4-((7-(2-morpholinoethoxy)-1,6-naphthyridin-4-yl)oxy)phenyl)cyclopropyl-1,1-dicarboxamide]	100 to 1000 nM
1 to 10 nM	O=C(Nc1ccc(F)cc1)C1(C(=O)Nc2ccc(Nc3ccnc4cc(OCCN5CCOCC5)ncc34)cc2)CC1 [Compound 13S, N-(4-fluorophenyl)-N-(4-((7-(2-morpholinoethoxy)-1,6-naphthyridin-4-yl)amino)phenyl)cyclopropyl-1,1-dicarboxamide]	100 to 1000 nM
1 to 10 nM	O=C(Nc1ccc(Oc2ccnc3cc(OCCN4CCOCC4)ncc23)c(F)c1)c1cccn(-c2ccc(F)cc2)c1=O [Compound 15S, N-(3-fluoro-4-((7-(2-morpholinoethoxy)-1,6-naphthyridin-4-yl)oxy)phenyl)-1-(4-fluorophenyl)-2-oxo-1,2-dihydropyridine-3-carboxamide]	10 to 100 nM
1 to 10 nM	O=C(Nc1ccc(Oc2ccnc3cc(OCCN4CCOCC4)ncc23)c(F)c1)c1c[nH]cc(-c2ccccc2)c1=O [Compound 20S, N-(3-fluoro-4-((7-(2-morpholinoethoxy)-1,6-naphthyridin-4-yl)oxy)phenyl)-4-oxo-5-phenyl-1,4-dihydropyridine-3-carboxamide]	10 to 100 nM
1 to 10 nM	O=C(Nc1ccc(Oc2ccnc3cc(OCCN4CCOCC4)ncc23)c(F)c1)c1c[nH]cc(-c2ccc(F)cc2)c1=O [Compound 22S, N-(3-fluoro-4-((7-(2-morpholinoethoxy)-1,6-naphthyridin-4-yl)oxy)phenyl)-5-(4-fluorophenyl)-4-oxo-1,4-dihydropyridine-3-carboxamide]	10 to 100 nM
1 to 10 nM	O=C(Nc1ccc(F)c(F)c1)C1(C(=O)Nc2ccc(Oc3ccnc4cc(OCCN5CCOCC5)ncc34)c(F)c2)CC1 [Compound 23S, N-(3,4-difluorophenyl)-N-(3-fluoro-4-((7-(2-morpholinoethoxy)-1,6-naphthyridin-4-yl)oxy)phenyl) cyclopropyl-1,1-dicarboxamide]	100 to 1000 nM
1 to 10 nM	COc1cc(NC(=O)C2(C(=O)Nc3ccc(Oc4ccnc5cc(OCCN6CCOCC6)ncc45)c(F)c3)CC2)ccc1F [Compound 24S, N-(4-fluoro-3-methoxyphenyl)-N-(3-fluoro-4-((7-(2-morpholinoethoxy)-1,6-naphthyridin-4-yl)oxy)phenyl) cyclopropyl-1,1-dicarboxamide]	100 to 1000 nM
1 to 10 nM	O=C(Nc1ccc(F)cc1)C1(C(=O)Nc2ccc(Oc3ccnc4cc(OCCc5ccncc5)ncc34)c(F)c2)CC1 [Compound 25S, N-(3-fluoro-4-((7-(2-(pyridin-4-yl)ethoxy)-1,6-naphthyridin-4-yl)oxy)phenyl)-N-(4-fluorophenyl)cyclopropyl-1,1-dicarboxamide]	100 to 1000 nM
10 to 100 nM	CC(CN1CCOCC1)Oc1cc2nccc(Oc3ccc(NC(=O)C4(C(=O)Nc5ccc(F)cc5)CC4)cc3F)c2cn1 (centres unmarked) [Compound 26S, N-(3-fluoro-4-((7-((1-morpholinopropan-2-yl)oxy)-1,6-naphthyridin-4-yl)oxy)phenyl)-N-(4-fluorophenyl) cyclopropyl-1,1-dicarboxamide]	100 to 1000 nM
1 to 10 nM	O=C1COCCN1CCOc1cc2nccc(Oc3ccc(NC(=O)C4(C(=O)Nc5ccc(F)cc5)CC4)cc3F)c2cn1 [Compound 37S, N-(3-fluoro-4-((7-(2-(3-oxomorpholino)ethoxy)-1,6-naphthyridin-4-yl)oxy)phenyl)-N-(4-fluorophenyl) cyclopropyl-1,1-dicarboxamide]	10 to 100 nM
1 to 10 nM	Cn1cc(-c2cc3nccc(Oc4ccc(NC(=O)C5(C(=O)Nc6ccc(F)cc6)CC5)cc4F)c3cn2)cn1 [Compound 38S, N-(3-fluoro-4-((7-(1-methyl-1H-pyrazol-4-yl)-1,6-naphthyridin-4-yl)oxy)phenyl)-N-(4-fluorophenyl)cyclopropyl-1,1-dicarboxamide]	1 to 10 nM
1 to 10 nM	O=C(Nc1ccc(F)cc1)C1(C(=O)Nc2ccc(Oc3ccnc4cc(-c5cn[nH]c5)ncc34)c(F)c2)CC1 [Compound 39S, N-(4-((7-(1H-pyrazol-4-yl)-1,6-naphthyridin-4-yl)oxy)-3-fluorophenyl)-N-(4-fluorophenyl)cyclopropyl-1,1-dicarboxamide]	1 to 10 nM
1 to 10 nM	CS(=O)(=O)n1cc(-c2cc3nccc(Oc4ccc(NC(=O)C5(C(=O)Nc6ccc(F)cc6)CC5)cc4F)c3cn2)cn1 [Compound 40S, N-(3-fluoro-4-((7-(1-(methylsulfonyl)-1H-pyrazol-4-yl)-1,6-naphthyridin-4-yl)oxy)phenyl)-N-(4-fluorophenyl) cyclopropyl-1,1-dicarboxamide]	10 to 100 nM
1 to 10 nM	CC(C)n1cc(-c2cc3nccc(Oc4ccc(NC(=O)C5(C(=O)Nc6ccc(F)cc6)CC5)cc4F)c3cn2)cn1 [Compound 41S, N-(3-fluoro-4-((7-(1-isopropyl-1H-pyrazol-4-yl)-1,6-naphthyridin-4-yl)oxy)phenyl)-N-(4-fluorophenyl) cyclopropyl-1,1-dicarboxamide]	1 to 10 nM
1 to 10 nM	O=C(Nc1ccc(F)cc1)C1(C(=O)Nc2ccc(Oc3ccnc4cc(-c5cnn(C6CCNCC6)c5)ncc34)c(F)c2)CC1 [Compound 42S, N-(3-fluoro-4-((7-(1-(piperidin-4-yl)-1H-pyrazol-4-yl)-1,6-naphthyridin-4-yl)oxy)phenyl)-N-(4-fluorophenyl) cyclopropyl-1,1-dicarboxamide]	1 to 10 nM
1 to 10 nM	CC(C)N1CCC(n2cc(-c3cc4nccc(Oc5ccc(NC(=O)C6(C(=O)Nc7ccc(F)cc7)CC6)cc5F)c4cn3)cn2)CC1 [Compound 43S, N-(3-fluoro-4-((7-(1-(1-isopropylpiperidin-4-yl)-1H-pyrazol-4-yl)-1,6-naphthyridin-4-yl)oxy)phenyl)-N-(4-fluorophenyl)cyclopropyl-1,1-dicarboxamide]	100 to 1000 nM
10 to 100 nM	O=C(Nc1ccc(F)cc1)C1(C(=O)Nc2ccc(Oc3ccnc4cc(Cn5ccnc5)ncc34)c(F)c2)CC1 [Compound 44S, N-(4-((7-((1H-imidazol-1-yl)methyl)-1,6-naphthyridin-4-yl)oxy)-3-fluorophenyl)-N-(4-fluorophenyl)cyclopropyl-1,1-dicarboxamide]	100 to 1000 nM
10 to 100 nM	Cn1cc(-c2cc3nccc(Oc4ccc(NC(=O)c5cccn(-c6ccc(F)cc6)c5=O)cc4F)c3cn2)cn1 [Compound 53S, N-(3-fluoro-4-((7-(1-methyl-1H-pyrazol-4-yl)-1,6-naphthyridin-4-yl)oxy)phenyl)-1-(4-fluorophenyl)-2-oxo-1,2-dihydropyridine-3-carboxamide]	
10 to 100 nM	O=C(Nc1ccc(F)cc1)C1(C(=O)Nc2ccc(Oc3ccnc4nc(OCCCN5CCOCC5)cnc34)c(F)c2)CC1 [Compound 61S, N-(3-fluoro-4-((3-(3-morpholinopropoxy)pyrido[2,3-b]pyrazin-8-yl)oxy)phenyl)-N-(4-fluorophenyl)cyclopropyl-1,1-dicarboxamide]	
	CN1CCN(CCOc2cnc3nccc(Oc4ccc(NC(=O)C5(C(=O)Nc6ccc(F)cc6)CC5)cc4F)c3n2)CC1 [Compound 66S, N-(3-fluoro-4-((2-(2-(4-methylpiperazin-1-yl)ethoxy)pyrido[2,3-b]pyrazin-8-yl)oxy)phenyl)-N-(4-fluorophenyl) cyclopropyl-1,1-dicarboxamide]	1000 to 10000 nM
